Experimental findings from ChEMBL document CHEMBL3875189, “A benzo[b]thiophene-based selective type 4 S1P receptor agonist” (Bioorg Med Chem Lett, 2017) are described below.

Broadly, the EC50 is the concentration needed to bring the measured effect to its halfway point.

In experiment [1] the target is Sphingosine 1-phosphate receptor 3 (Homo sapiens, UniProt Q99500). Kind of experiment: Agonist activity at recombinant human S1PR3 expressed in CHO cell membranes assessed as [35S]GTP-gammaS binding measured after 1.5 hrs by TopCount scintillation counting method. On the technique in general: Binding of GTPγS marks nucleotide exchange on a G protein.
Chain of Sphingosine 1-phosphate receptor 3 (Q99500 whole entry): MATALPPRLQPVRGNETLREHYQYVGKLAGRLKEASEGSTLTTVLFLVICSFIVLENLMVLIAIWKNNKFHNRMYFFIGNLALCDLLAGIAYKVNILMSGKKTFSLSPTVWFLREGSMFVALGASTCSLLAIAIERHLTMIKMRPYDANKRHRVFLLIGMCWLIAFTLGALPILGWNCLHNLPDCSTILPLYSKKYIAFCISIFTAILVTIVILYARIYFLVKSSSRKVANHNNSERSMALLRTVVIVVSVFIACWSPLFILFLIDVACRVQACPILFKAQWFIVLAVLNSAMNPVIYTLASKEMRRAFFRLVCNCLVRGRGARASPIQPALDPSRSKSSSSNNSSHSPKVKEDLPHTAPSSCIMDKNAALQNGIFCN
The target in experiment [2] is T1, Sphingosine 1-phosphate receptor 5 (Homo sapiens, UniProt Q9H228). The experiment can be described thus: Agonist activity at recombinant human S1PR5 expressed in CHO cell membranes assessed as [35S]GTP-gammaS binding measured after 1.5 hrs by TopCount scintillation counting method.
T1 sequence (Q9H228 whole entry): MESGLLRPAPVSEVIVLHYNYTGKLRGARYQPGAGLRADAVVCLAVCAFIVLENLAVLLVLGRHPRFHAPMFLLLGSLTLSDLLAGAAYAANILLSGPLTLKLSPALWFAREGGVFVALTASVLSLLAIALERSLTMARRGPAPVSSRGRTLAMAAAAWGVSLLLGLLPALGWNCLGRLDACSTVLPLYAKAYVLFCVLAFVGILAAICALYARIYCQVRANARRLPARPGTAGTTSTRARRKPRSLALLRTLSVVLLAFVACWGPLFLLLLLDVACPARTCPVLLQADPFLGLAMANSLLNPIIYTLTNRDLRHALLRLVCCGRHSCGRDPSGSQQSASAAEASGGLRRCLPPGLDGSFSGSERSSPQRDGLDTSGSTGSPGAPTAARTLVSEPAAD
The target of experiment [3] is Sphingosine 1-phosphate receptor 2 (Homo sapiens, UniProt O95136). Kind of experiment: Agonist activity at recombinant human S1PR2 expressed in CHO cell membranes assessed as [35S]GTP-gammaS binding measured after 1.5 hrs by TopCount scintillation counting method.
Chain of Sphingosine 1-phosphate receptor 2 (O95136 whole entry): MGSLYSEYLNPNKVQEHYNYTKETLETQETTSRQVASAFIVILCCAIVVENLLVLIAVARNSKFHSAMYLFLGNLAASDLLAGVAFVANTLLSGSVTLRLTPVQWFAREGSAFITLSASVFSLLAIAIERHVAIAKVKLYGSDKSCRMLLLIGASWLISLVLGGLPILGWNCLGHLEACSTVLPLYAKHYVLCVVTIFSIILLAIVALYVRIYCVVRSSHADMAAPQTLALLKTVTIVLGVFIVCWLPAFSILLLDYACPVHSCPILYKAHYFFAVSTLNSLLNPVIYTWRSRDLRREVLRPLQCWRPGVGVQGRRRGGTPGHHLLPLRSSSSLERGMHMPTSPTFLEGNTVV
In experiment [4] the target is T2, Sphingosine 1-phosphate receptor 4 (Homo sapiens, UniProt O95977).
T2 sequence (O95977 whole entry): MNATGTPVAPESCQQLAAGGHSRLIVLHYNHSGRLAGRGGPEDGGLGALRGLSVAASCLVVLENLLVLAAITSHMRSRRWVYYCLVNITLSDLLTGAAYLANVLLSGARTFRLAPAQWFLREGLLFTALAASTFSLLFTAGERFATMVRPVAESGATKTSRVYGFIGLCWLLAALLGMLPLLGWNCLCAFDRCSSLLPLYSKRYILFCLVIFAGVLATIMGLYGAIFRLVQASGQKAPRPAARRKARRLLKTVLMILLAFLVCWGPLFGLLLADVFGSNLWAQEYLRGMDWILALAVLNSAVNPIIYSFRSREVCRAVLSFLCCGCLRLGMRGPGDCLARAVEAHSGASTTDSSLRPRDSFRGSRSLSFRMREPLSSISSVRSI
The experiment can be described thus: Agonist activity at recombinant human S1PR4 expressed in CHO cell membranes assessed as [35S]GTP-gammaS binding measured after 1.5 hrs by TopCount scintillation counting method.

Experiment [5] concerns the target T3, Sphingosine 1-phosphate receptor 1 (Homo sapiens, UniProt P21453). Kind of experiment: Agonist activity at recombinant human S1PR1 expressed in CHO cell membranes assessed as [35S]GTP-gammaS binding measured after 1.5 hrs by TopCount scintillation counting method.
Experiment [6] addresses T1, Sphingosine 1-phosphate receptor 5. Kind of experiment: Agonist activity at recombinant human S1PR5 expressed in CHO cell membranes assessed as [35S]GTP-gammaS binding measured after 1.5 hrs by TopCount scintillation counting method relative to S1P.
Experiment [7] has the same target. The experiment can be described thus: Activation of human S1PR5 expressed in CHO cells assessed as suppression of forskolin-induced intracellular cAMP level at 1 to 10 uM measured after 15 mins by ELISA. It is filed as functional, cell-based. On the technique in general: cAMP levels reflect the balance of adenylyl cyclase and phosphodiesterase activity.
Experiment [8] deals with T3, Sphingosine 1-phosphate receptor 1. Kind of experiment: Activation of human S1PR1 expressed in CHO cells assessed as ERK1/2 phosphorylation at 1 to 10 uM treated under serum-free condition post 1 day serum starvation measured after 10 to 30 mins by Western blot analysis. It is filed as cell-based.
Experiment [9] has the same target. The experiment can be described thus: Activation of human S1PR1 expressed in CHO cells assessed as suppression of forskolin-induced intracellular cAMP level at 1 to 10 uM measured after 15 mins by ELISA. It is filed as functional, cell-based.
For experiment [10], the target named is T4, Sphingosine 1-phosphate receptor 4 (Homo sapiens) (UniProt O95977).
T4 sequence (whole entry): T2 sequence (O95977 whole entry)
The experiment can be described thus: Activation of human S1PR4 expressed in CHO cells assessed as ERK1/2 phosphorylation at 10 uM treated under serum-free condition post 1 day serum starvation measured after 5 mins by Western blot analysis. It is filed as cell-based.

The target in experiment [11] is T2, Sphingosine 1-phosphate receptor 4. Kind of experiment: Activation of human S1PR4 expressed in CHO cells assessed as suppression of forskolin-induced intracellular cAMP level measured after 15 mins by ELISA. The format is functional, cell-based.
Experiment [12] concerns the target T4, Sphingosine 1-phosphate receptor 4 (Homo sapiens). Kind of experiment: Activation of human S1PR4 expressed in CHO cells assessed as suppression of forskolin-induced intracellular cAMP level at 1 to 10 uM measured after 15 mins by ELISA. The format is functional, cell-based.
For experiment [13] the target is unchanged. Kind of experiment: Activation of human S1PR4 expressed in CHO cells assessed as ERK1/2 phosphorylation at 100 nM treated under serum-free condition post 1 day serum starvation measured after 5 mins by Western blot analysis. It is filed as cell-based. Background: Immunoblotting shows a protein as a band on a membrane.

Active and inactive are the calls of the source. The calls are words filed in the database; no cut-off is given here.

T3 sequence (P21453 whole entry): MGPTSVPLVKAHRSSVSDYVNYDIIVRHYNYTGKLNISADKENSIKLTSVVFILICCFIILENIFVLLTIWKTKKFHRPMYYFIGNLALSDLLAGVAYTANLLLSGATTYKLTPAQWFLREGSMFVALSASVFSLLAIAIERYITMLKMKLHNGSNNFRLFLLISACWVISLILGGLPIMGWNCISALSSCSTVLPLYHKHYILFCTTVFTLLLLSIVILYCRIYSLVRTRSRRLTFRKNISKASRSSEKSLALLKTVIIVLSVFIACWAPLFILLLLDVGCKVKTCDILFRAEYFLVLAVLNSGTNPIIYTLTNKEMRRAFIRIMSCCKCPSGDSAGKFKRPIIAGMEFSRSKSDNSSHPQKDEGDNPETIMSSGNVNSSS

Regarding `O=C(O)CCNCc1cc2c(-c3ccc4ccccc4c3)cccc2s1`, the concentration giving a half-maximal response (EC50) in experiment [1] was more than 100000 nM; in [2], 31 nM; in [3] it was more than 100000 nM; in [4] it was 433 nM; in experiment [5], more than 100000 nM. For the same molecule, the Efficacy in experiment [6] was 75%.

Take `O=C(O)CCCNCc1cc2c(-c3ccc4ccccc4c3)cccc2s1`: the EC50 is more than 100000 nM in [1]; 60 nM in experiment [2]; more than 100000 nM in experiment [3]; 211 nM in [4]; more than 100000 nM in experiment [5]. The Efficacy in experiment [6] amounted to 69%.

Take `O=C(O)C1CN(Cc2cc3cc(-c4ccc5ccccc5c4)ccc3s2)C1`: the EC50 was more than 100000 nM in experiment [1]; 22 nM in [2]; more than 100000 nM in experiment [3]; more than 100000 nM in experiment [4]; more than 100000 nM in [5]. Further, the outcome in experiment [7], in experiment [8] and in [9] was Active. Moreover, in experiment [6], the Efficacy was determined as 50%.

Turning to `O=C(O)CNCc1cc2c(-c3ccc4ccccc4c3)cccc2s1`, the EC50 in experiment [1] was more than 100000 nM; in experiment [2], 51 nM; in experiment [3] it was more than 100000 nM; in experiment [4], 640 nM; in experiment [5], more than 100000 nM. Moreover, in [6], the Efficacy was 47%.

For `O=C(O)CCCNCc1cc2cccc(-c3ccc4ccccc4c3)c2s1`, the result in experiment [10], in experiment [12] and in [13] was Active. The EC50 is more than 100000 nM in experiment [1]; 154 nM in experiment [11]; 370 nM in experiment [2]; more than 100000 nM in [3]; 200 nM in experiment [4]; more than 100000 nM in experiment [5]. The Efficacy in experiment [6] was found to be 24%.

Take `O=C(O)c1ccc(CNCc2cc3c(-c4ccc5ccccc5c4)cccc3s2)cc1`: the EC50 in [1] was more than 100000 nM; in experiment [2], 356 nM; in experiment [3], more than 100000 nM; in [4], more than 100000 nM; in experiment [5] it was more than 100000 nM. For the same molecule, in [6], the Efficacy turned out to be 53%.

`O=C(O)CCCCNCc1cc2c(-c3ccc4ccccc4c3)cccc2s1`: the EC50 in experiment [1] is more than 100000 nM; in [2], 152 nM; in experiment [3], more than 100000 nM; in experiment [4], 1080 nM; in [5], more than 100000 nM. Also, the Efficacy in experiment [6] amounted to 47%.
